ChEMBL document CHEMBL1201862, “PubChem BioAssay data set” (2004)
Active and inactive are the calls of the source.

Experiments:
BJ [1] = experiment: BJ-TERT-LT-ST fibroblast viability loss – cell-based, RAS-independent, luminescence, dose response (AID 1935); type: functional; details: Homo sapiens;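 further: BJ fibroblasts immortalized with TERT plus LT and ST oncogenes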
BJ [2] = experiment: cells; type: functional, cell-based; details: Homo sapiens
[3] = DRD fibroblast viability loss – cell-based, non-viral oncogenic, luminescence, dose response (AID 1934); type: functional; details: Homo sapiens
BJ [4] = experiment: BJ-TERT fibroblast viability loss – cell-based, RAS-independent, luminescence, dose response (AID 1933); type: functional; details: Homo sapiens
BJ [5] = experiment: growth inhibition of engineered Ras-driven BJ cells – cell-based, alamar blue fluorescence, cherrypicked samples, dose response (AID 2631); type: functional; details: Homo sapiens;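 further: confirmatory dose-response assay in RAS-dependent BJ fibroblasts engineered with TERT, LT and ST, with cytotoxicity read by fluorescence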
[6] = Luminescence Cell-Based Dose Response HTS to Identify Activators of Luciferase Translation or Activity in H4 […] Cells. [Related pubchem assays: 1829 (Project Summary), 1814 (Primary HTS)]; type: functional
[7] = target: T1, Microphthalmia-associated transcription factor (Homo sapiens, UniProt O75030); experiment: reducers of TRPM1 reporter luminescence, concentration series – cell-based, SK-MEL-5, cherry-picked, set 3, MITF inhibitor project, dose response (AID 493073); type: functional;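 further: SK-MEL-5 melanoma cells with luciferase driven by the MITF target TRPM1 promoter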
T1 sequence (O75030 whole entry): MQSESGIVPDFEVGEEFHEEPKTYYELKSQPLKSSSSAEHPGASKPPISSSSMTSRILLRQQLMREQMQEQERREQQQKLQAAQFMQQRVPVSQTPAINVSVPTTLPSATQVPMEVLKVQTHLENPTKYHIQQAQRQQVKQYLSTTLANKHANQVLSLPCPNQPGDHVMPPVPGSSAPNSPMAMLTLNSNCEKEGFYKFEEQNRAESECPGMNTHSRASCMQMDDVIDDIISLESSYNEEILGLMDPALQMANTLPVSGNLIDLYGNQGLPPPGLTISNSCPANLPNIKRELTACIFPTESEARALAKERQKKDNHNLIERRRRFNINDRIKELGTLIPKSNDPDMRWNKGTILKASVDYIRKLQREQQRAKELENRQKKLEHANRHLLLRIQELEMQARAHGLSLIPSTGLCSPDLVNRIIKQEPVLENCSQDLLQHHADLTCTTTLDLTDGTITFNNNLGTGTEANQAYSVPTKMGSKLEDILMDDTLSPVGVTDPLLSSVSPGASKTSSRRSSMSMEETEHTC

[8] = reduction of Shn3 3'UTR-driven luciferase in osteoblasts – cell-based, Clone20 osteoblasts, firefly luciferase, cherry-picked, dose response (AID 624132); type: functional;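 further: firefly luciferase luminescence from reporter carrying the Shn3 3'UTR in osteoblasts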
[9] = Luminescence Cell-Based Dose Confirmation HTS to Identify Activators of 5'UTR Stem-Loop Driven Alpha-Synuclein mRNA Translation in H4 Neuroglioblastoma Cells. [Related pubchem assays: 1829 (Project Summary), 1814 (Primary HTS)]; type: functional
H4 = experiment: Luminescence Cell-Based Dose Response HTS to Identify Activators of 5'UTR Stem-Loop Driven Prion Protein mRNA Translation in H4 Neuroglioblastoma Cells. [Related pubchem assays: 1829 (Project Summary), 1814 (Primary HTS)]; type: functional; details: Homo sapiens
[10] = Luminescence Cell-Based Dose Retest to Confirm Inhibitors of Cancer Stem Cells. [Related pubchem assays (depositor defined):AID2717, AID2721]; type: functional; details: Homo sapiens
INS1 = experiment: INS-1E survival protection against cytokine death – cell-based, luminescence, retest, dose response (AID 449756); type: functional; details: Rattus norvegicus;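 further: cell death triggered by IL-1 beta plus TNF-alpha plus IFN-gamma mixture; protective hits raise ATP signal compared with cytokine alone wells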
[11] = target: T2, E3 ubiquitin-protein ligase XIAP (Homo sapiens, UniProt P98170); experiment: Counter Screen using XIAP-Bir3 for Chemical Antagonists of Bir1/2 domains of IAP-family anti-apoptotic proteins. [Related pubchem assays (depositor defined):AID1018, AID1449, AID1514, AID1638, AID1749, AID1750, AID488957, AID488963]
T2 sequence (P98170 whole entry): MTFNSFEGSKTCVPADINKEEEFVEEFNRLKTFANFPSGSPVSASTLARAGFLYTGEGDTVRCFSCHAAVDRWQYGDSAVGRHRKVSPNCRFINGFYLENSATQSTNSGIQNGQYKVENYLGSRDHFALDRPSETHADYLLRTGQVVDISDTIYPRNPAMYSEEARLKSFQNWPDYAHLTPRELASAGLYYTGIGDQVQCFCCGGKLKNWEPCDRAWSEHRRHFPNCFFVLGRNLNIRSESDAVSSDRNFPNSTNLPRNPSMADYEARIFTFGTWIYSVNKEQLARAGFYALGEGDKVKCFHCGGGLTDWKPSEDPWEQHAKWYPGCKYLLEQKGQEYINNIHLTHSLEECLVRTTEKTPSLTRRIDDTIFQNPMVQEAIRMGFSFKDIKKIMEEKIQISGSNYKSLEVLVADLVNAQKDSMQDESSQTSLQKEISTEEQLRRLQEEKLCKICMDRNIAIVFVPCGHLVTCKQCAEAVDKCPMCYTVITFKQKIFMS

[12] = target: T2, E3 ubiquitin-protein ligase XIAP; experiment: small molecules displacing peptide from XIAP – biochemical, IAP family, fluorescence polarization (AID 1018); type: functional
Cytochrome P450 2D6 = Cytochrome P450 2D6 (Homo sapiens, UniProt P10635);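 further: CYP2D6 member of a cytochrome P450 panel assay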
Cytochrome P450 2D6, sequence (P10635 whole entry): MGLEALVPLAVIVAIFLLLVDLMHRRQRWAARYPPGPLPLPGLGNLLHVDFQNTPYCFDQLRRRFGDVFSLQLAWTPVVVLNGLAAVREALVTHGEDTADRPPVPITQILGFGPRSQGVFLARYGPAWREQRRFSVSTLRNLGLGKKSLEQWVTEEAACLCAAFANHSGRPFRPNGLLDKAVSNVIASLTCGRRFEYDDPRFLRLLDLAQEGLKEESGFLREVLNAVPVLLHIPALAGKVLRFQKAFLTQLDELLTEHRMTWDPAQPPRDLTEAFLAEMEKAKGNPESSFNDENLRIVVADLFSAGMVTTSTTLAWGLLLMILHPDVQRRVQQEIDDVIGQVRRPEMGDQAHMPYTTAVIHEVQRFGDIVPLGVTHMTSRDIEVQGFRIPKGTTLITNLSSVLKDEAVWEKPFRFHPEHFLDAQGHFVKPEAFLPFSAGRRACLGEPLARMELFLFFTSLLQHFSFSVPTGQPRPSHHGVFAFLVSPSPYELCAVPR

Cytochrome P450 3A4 = Cytochrome P450 3A4 (Homo sapiens, UniProt P08684);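 further: CYP3A4 tested as one member of a cytochrome P450 panel screen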
Cytochrome P450 3A4, sequence (P08684 whole entry): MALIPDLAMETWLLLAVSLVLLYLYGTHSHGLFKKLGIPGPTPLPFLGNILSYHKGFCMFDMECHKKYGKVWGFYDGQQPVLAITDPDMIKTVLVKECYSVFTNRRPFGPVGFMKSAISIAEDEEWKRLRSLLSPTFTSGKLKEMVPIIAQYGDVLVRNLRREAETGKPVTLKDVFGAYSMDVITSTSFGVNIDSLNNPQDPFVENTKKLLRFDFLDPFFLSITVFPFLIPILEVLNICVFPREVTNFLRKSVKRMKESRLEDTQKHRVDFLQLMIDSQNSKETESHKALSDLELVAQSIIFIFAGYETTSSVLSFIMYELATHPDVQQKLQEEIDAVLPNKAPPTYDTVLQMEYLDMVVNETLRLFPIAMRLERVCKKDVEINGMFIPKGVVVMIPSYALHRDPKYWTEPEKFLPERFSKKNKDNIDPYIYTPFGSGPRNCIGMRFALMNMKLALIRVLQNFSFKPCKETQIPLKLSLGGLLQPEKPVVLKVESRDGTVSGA

Cytochrome P450 1A2 = target: T3, Cytochrome P450 1A2 (Homo sapiens, UniProt P05177);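 further: PubChem cytochrome P450 panel assay, CYP1A2 panel member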
T3 sequence (P05177 whole entry): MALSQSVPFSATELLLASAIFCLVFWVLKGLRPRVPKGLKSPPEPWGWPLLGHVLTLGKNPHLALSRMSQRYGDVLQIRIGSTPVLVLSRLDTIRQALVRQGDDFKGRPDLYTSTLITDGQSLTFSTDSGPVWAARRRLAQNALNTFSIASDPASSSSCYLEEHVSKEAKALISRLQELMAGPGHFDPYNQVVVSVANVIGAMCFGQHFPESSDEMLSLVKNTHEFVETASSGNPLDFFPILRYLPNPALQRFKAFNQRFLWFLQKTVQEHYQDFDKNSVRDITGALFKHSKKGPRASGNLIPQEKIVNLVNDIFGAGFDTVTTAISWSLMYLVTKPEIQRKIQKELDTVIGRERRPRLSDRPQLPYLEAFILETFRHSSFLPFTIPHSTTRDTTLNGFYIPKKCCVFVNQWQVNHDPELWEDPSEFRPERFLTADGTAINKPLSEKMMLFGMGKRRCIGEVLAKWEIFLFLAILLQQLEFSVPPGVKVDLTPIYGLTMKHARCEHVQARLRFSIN

[13] = target: 72 kDa type IV collagenase (Homo sapiens, UniProt P08253); experiment: Dose Response validation of uHTS RPN11 inhibitor hits using a MMP-2 Fluorescence assay.; type: functional
72 kDa type IV collagenase, sequence (P08253 whole entry): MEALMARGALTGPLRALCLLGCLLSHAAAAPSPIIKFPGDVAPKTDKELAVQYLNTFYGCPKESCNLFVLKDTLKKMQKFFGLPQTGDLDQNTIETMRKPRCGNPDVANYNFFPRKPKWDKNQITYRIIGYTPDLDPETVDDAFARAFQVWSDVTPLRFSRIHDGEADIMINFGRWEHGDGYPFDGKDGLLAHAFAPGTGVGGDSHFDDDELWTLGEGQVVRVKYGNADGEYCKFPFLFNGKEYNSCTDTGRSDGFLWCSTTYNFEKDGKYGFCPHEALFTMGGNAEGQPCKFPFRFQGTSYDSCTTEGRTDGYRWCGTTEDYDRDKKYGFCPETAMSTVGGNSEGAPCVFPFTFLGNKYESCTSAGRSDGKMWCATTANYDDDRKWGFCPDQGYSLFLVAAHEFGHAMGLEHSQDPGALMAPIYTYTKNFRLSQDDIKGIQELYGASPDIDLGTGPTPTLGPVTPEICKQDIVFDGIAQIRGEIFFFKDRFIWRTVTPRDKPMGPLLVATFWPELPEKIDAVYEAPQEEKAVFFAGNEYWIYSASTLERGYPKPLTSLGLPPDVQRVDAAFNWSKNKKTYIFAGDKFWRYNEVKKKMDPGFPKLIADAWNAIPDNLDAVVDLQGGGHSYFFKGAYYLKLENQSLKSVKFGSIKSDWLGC

[14] = target: 26S proteasome non-ATPase regulatory subunit 14 (Homo sapiens, UniProt O00487); experiment: inhibition of proteasome subunit RPN11 – biochemical, fluorescence polarization, uHTS hits, confirmation (AID 602368); type: functional
26S proteasome non-ATPase regulatory subunit 14, sequence (O00487 whole entry): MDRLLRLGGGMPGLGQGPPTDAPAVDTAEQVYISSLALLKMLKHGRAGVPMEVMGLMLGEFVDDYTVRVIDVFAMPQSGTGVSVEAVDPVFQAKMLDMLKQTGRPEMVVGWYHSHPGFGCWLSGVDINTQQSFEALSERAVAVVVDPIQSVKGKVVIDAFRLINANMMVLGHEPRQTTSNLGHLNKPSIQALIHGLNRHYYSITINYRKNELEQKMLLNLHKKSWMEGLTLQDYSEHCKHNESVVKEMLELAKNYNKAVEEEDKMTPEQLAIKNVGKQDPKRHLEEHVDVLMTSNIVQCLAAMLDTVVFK

Prothrombin = Prothrombin (Bos taurus, UniProt P00735); experiment: thrombin protease inhibitors – biochemical, fluorescence polarization, uHTS hits, dose response (AID 602369); type: functional
[15] = Trypanosoma cruzi growth suppression in host cells – NIH3T3 host cells, beta-gal luminescence, confirmation (AID 2044); type: functional, cell-based;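 further: intracellular parasites grown in NIH/3T3 mouse fibroblasts as host cells; luminescent beta-galactosidase reporter signal from transgenic T. cruzi replicating inside host cells; inhibitors lower the luminescence signal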
[16] = NIH3T3 cell viability loss – ATP luminescence, mouse fibroblasts, counter-screen, dose response (AID 2010); type: functional, cell-based;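 further: cells exposed to compound for about 90 hours before reading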
Cytochrome P450 2C19 = Cytochrome P450 2C19 (Homo sapiens, UniProt P33261); experiment: Cytochrome panel assay with activity outcomes. Panel member name: p450-cyp2c19 Compounds with AC50 equal or less than 10 uM are considered active; type: functional; details: read-out: AC50
Cytochrome P450 2C19, sequence (P33261 whole entry): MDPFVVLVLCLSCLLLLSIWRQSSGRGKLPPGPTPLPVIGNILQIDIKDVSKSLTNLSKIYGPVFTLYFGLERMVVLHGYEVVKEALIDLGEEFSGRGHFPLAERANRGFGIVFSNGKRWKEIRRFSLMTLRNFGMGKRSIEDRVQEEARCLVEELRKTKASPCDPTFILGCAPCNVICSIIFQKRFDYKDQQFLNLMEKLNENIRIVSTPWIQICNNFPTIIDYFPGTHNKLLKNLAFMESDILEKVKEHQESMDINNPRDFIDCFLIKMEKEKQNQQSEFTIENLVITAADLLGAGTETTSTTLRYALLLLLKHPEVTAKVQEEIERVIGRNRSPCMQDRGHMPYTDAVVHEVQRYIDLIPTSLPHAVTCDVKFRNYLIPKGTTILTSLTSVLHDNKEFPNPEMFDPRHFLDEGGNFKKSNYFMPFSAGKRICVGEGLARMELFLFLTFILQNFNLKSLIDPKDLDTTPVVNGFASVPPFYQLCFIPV

Hexokinase = target: T4, Hexokinase (Trypanosoma brucei, UniProt Q38C41); experiment: Confirmation assay for inhibitors of Trypanosoma brucei hexokinase 1-Analogue-first series. [Related pubchem assays (depositor defined):AID1430, AID1632, AID2516, AID2560, AID2579, AID2600, AID449725, AID492951]; type: functional
T4 sequence (Q38C41 whole entry): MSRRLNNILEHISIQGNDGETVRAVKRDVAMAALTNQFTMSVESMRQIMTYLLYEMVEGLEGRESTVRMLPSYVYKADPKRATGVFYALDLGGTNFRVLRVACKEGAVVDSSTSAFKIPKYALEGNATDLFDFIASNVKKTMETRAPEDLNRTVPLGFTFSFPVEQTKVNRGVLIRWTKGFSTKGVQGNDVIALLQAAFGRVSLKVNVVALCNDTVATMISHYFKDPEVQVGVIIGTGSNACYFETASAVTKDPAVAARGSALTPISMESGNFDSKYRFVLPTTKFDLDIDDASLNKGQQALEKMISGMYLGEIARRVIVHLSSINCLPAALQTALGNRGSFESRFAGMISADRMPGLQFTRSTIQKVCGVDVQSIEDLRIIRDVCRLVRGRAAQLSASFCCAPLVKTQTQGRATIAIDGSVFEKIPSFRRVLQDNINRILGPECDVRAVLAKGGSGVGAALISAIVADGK

P388/ADR = experiment: cells; type: functional; details: Mus musculus
SN12K1 = experiment: cells; type: functional; details: Homo sapiens
P388 = experiment: cells; type: functional; details: Mus musculus
[17] = target: T5, Carboxy-terminal domain RNA polymerase II polypeptide A small phosphatase 1 (Homo sapiens, UniProt Q9GZU7); experiment: CTDSP1 inhibitors, concentration-response, biochemical, absorbance readout, ultra-high-throughput screen actives (AID 540297); type: functional
T5 sequence (Q9GZU7 whole entry): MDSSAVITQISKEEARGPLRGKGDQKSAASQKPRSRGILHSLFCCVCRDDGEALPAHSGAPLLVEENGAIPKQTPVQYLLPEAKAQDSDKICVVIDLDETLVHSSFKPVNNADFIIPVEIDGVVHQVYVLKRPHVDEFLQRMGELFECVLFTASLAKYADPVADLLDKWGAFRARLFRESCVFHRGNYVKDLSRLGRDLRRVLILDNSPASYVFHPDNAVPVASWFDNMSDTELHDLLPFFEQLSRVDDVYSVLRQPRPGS

Structure (SMILES): CC(C)C(=O)Nc1ccc(C(=O)NCc2cccnc2)cc1
- EC50 (BJ [1]): 19.4 µM (inconclusive)
- EC50 (BJ [2]): 3.86 µM (active)
- EC50 [3]: > 150 µM (not active)
- EC50 (BJ [4]): > 150 µM (not active)
- EC50 (BJ [5]): 18.9 µM (active)

Structure (SMILES): CCN(CC)Cc1c(O)ccc2c1O/C(=C\C=C\c1ccccc1)C2=O
- EC50 [6]: 29.6 µM (active)
- AC50 [7]: 47.6 µM (active)
- AC50 [8]: 1.96 µM (active)
- EC50 (BJ [1]): > 150 µM (inconclusive)
- EC50 [9]: 16.5 µM (active)
- EC50 (H4): > 120 µM (not active)
- EC50 (BJ [2]): > 150 µM (not active)
- EC50 [3]: 55.7 µM (active)
- EC50 (BJ [4]): > 150 µM (not active)
- EC50 (BJ [5]): > 133 µM (inactive)
- AC50 [10]: 16.6 µM (active)
- AC50 (INS1): > 120 µM (inactive)

Structure (SMILES): Cc1cc(C)cc(NC(=O)Nc2ccc3c(c2)N(C)C(=O)CS3)c1
- IC50 [11]: > 100 µM (inactive)
- IC50 [12]: > 100 µM (not active)

Structure (SMILES): CN1CCN(c2ccc(NC(=S)NC(=O)c3cccc4ccccc34)cc2)CC1
- AC50 [7]: 9 µM (active)

Structure (SMILES): O=C(NCc1cccnc1)c1ccc(NC(=O)c2ccc([N+](=O)[O-])cc2)cc1
- EC50 (BJ [1]): > 150 µM (not active)
- EC50 (BJ [2]): 15.9 µM (inconclusive)
- EC50 [3]: > 150 µM (not active)
- EC50 (BJ [4]): > 150 µM (not active)
- EC50 (BJ [5]): > 66.7 µM (inactive)
- AC50 (INS1): < 0.195 µM (active)

Structure (SMILES): Cc1cc(Cl)ccc1OCC(=O)Nc1ccccc1CO
- IC50 [11]: > 100 µM (inactive)
- IC50 [12]: > 100 µM (not active)

Structure (SMILES): C#CCN[C@@H](C)Cc1ccccc1
- AC50 (Cytochrome P450 2D6): 25.1 µM (inconclusive)
- AC50 (Cytochrome P450 3A4): inconclusive
- AC50 (Cytochrome P450 1A2): 15.8 µM (inconclusive)

Structure (SMILES): CCOC(=O)NC(=O)/C(C#N)=C/c1ccc(N(C)C)cc1
- IC50 [13]: > 100 µM (inactive)
- IC50 [14]: 14.7 µM (active)
- IC50 (Prothrombin): 25.6 µM (active)

Structure (SMILES): CN(C)CCCn1c(-c2ccccc2)nc(=S)c2c1CCCC2
- EC50 [15]: 0.697 µM (active)
- IC50 [11]: > 100 µM (inactive)
- IC50 [12]: > 100 µM (not active)
- EC50 [16]: > 60 µM (not active)

Structure (SMILES): CCOC(=O)c1c(C)nc2c(c1-c1ccccc1)C(=O)CCC2
- AC50 (Cytochrome P450 3A4): inconclusive

Structure (SMILES): COc1ccc(C(N)=NOC(=O)Cc2ccc(C)cc2)cc1
- IC50 [11]: > 100 µM (inactive)
- IC50 [12]: > 100 µM (not active)

Structure (SMILES): O=C(C1CCN(S(=O)(=O)N2CCOCC2)CC1)N1CCN(Cc2ccccc2)CC1
- AC50 (Cytochrome P450 2C19): 14.1 µM (inconclusive)
- AC50 (Cytochrome P450 3A4): inconclusive

Structure (SMILES): COc1ccccc1NC(=O)CCc1nc2sc3c(c2c(=O)[nH]1)CCCC3
- IC50 [13]: > 100 µM (inactive)
- IC50 [14]: 33.1 µM (active)
- IC50 (Prothrombin): 47.9 µM (active)

Structure (SMILES): O=C(Cn1sc2ccccc2c1=O)Nc1ccccc1Br
- IC50 (Hexokinase): 4.66 µM (active)

Structure (SMILES): COc1ccc(S(=O)(=O)Nc2cc(Cl)ccc2C(=O)O)cc1
- IC50 (Hexokinase): > 25 µM (inactive)

Structure (SMILES): CC(C)(C)c1ccc(C(=O)Nc2cc(Cl)c(F)cc2C(=O)O)cc1
- IC50 (Hexokinase): 2.79 µM (active)

Structure (SMILES): C/C(=N\NC(=S)N1CC2CCC(CC2)C1)c1nccs1
- GI50 (P388/ADR): < 0.01 µM (active)
- GI50 (SN12K1): < 0.01 µM (active)
- GI50 (P388): < 0.01 µM (active)

Structure (SMILES): Cc1ccc(CSCC(=O)N/N=C/c2ccc(OCC(=O)Nc3ccc(C)cc3)cc2)cc1
- IC50 [17]: 3.43 µM (active)
- IC50 [13]: > 100 µM (inactive)
- IC50 [14]: 11.9 µM (active)
- IC50 (Prothrombin): 96.9 µM (active)

Structure (SMILES): O=C(CCl)NC(Cc1ccc(F)cc1)C(=O)O (stereo unspecified)
- GI50 (P388/ADR): > 100 µM (inactive)
- GI50 (SN12K1): > 100 µM (inactive)
- GI50 (P388): > 100 µM (inactive)

Structure (SMILES): Cc1c2ccnc(C(F)(F)F)c2cc2c1[nH]c1ccccc12
- GI50 (P388/ADR): 78.9 µM (inactive)
- GI50 (SN12K1): 58.5 µM (inactive)
- GI50 (P388): > 125 µM (inactive)

Structure (SMILES): CC(O)C(O)C(N)CC=O (stereo unspecified)
- GI50 (P388/ADR): > 500 µM (inactive)
- GI50 (SN12K1): > 500 µM (inactive)
- GI50 (P388): > 500 µM (inactive)

Structure (SMILES): O=c1ccsn1-c1ccccc1
- IC50 (Hexokinase): 13.5 µM (active)
